molecular target: T1, human PAH with the R408W mutation (Homo sapiens, UniProt P00439, R408W); assay: Cell Based Phenylalanine Flux Assay; details: A375 cells expressing human R408W PAH; 24 hrs compound incubation; 13C-Tyrosine by LC-MS; average where tested multiple times; read-out: AC50;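 also: after compound treatment, cells received sepiapterin plus isotope-labelled Phenylalanine for 4 hours, then labelled Tyrosine in the medium was quantified, 10-point 2-fold dilution series run in duplicate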
T1 construct: expressed in transfected cells
T1 sequence (P00439 1-452 R408W): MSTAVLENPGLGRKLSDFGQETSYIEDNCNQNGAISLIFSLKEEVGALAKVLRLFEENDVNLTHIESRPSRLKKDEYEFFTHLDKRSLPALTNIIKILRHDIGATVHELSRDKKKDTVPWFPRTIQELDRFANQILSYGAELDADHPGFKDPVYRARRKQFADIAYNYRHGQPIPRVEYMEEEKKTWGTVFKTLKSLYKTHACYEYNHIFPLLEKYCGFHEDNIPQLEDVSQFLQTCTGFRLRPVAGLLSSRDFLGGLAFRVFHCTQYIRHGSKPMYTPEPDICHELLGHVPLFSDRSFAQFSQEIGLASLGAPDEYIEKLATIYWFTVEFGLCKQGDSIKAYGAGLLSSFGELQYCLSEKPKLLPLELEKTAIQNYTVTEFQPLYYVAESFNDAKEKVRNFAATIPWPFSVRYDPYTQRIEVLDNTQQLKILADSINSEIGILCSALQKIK

First: CC(C)(O)c1nc(Br)c(C(=O)N2CCc3[nH]cnc3[C@H]2c2cc3c(Cl)cccn3n2)o1 [Example 722, (S)-(4-bromo-2-(2-hydroxypropan-2-yl)oxazol-5-yl)(4-(4-chloropyrazolo[1,5-a]pyridin-2-yl)-6,7-dihydro-1H-imidazo[4,5-c]pyridin-5(4H)-yl)methanone]
Second: CC(C)(O)c1nc(Br)c(C(=O)N2CCc3[nH]cnc3[C@@H]2c2cc3c(Cl)cccn3n2)o1 [Example 723, (R)-(4-bromo-2-(2-hydroxypropan-2-yl)oxazol-5-yl)(4-(4-chloropyrazolo[1,5-a]pyridin-2-yl)-6,7-dihydro-1H-imidazo[4,5-c]pyridin-5(4H)-yl)methanone]
The AC50 of the first is lower: < 500 nM for the first, 1000 to 5000 nM for the second.

First: Cc1nc(C(C)(C)O)oc1C(=O)N1CCc2[nH]cnc2[C@H]1c1cc2c(Cl)cccn2n1 [Example 724, (S)-(4-(4-chloropyrazolo[1,5-a]pyridin-2-yl)-6,7-dihydro-1H-imidazo[4,5-c]pyridin-5(4H)-yl)(2-(2-hydroxypropan-2-yl)-4-methyloxazol-5-yl)methanone]
Second: Cc1nc(C(C)(C)O)oc1C(=O)N1CCc2[nH]cnc2[C@@H]1c1cc2c(Cl)cccn2n1 [Example 725, (R)-(4-(4-chloropyrazolo[1,5-a]pyridin-2-yl)-6,7-dihydro-1H-imidazo[4,5-c]pyridin-5(4H)-yl)(2-(2-hydroxypropan-2-yl)-4-methyloxazol-5-yl)methanone]
The AC50 of the first is lower: < 500 nM for the first, > 5000 nM for the second.

Compared with Cc1nc([C@@H](C)O)oc1C(=O)N1CCc2[nH]cnc2[C@H]1c1cc2c(F)cccn2n1 [Example 726, ((S)-4-(4-fluoropyrazolo[1,5-a]pyridin-2-yl)-6,7-dihydro-1H-imidazo[4,5-c]pyridin-5(4H)-yl)(2-((R)-1-hydroxyethyl)-4-methyloxazol-5-yl)methanone], Cc1nc([C@@H](C)O)oc1C(=O)N1CCc2[nH]cnc2[C@@H]1c1cc2c(F)cccn2n1 [Example 727, ((R)-4-(4-fluoropyrazolo[1,5-a]pyridin-2-yl)-6,7-dihydro-1H-imidazo[4,5-c]pyridin-5(4H)-yl)(2-((R)-1-hydroxyethyl)-4-methyloxazol-5-yl)methanone] is higher in AC50: 500 to 1000 nM for the first, 1000 to 5000 nM for the second.

Cn1cc(-c2nnc(C(=O)N3CCc4[nH]cnc4[C@H]3c3cc4c(F)cccn4n3)o2)cn1 [Example 728, (S)-(4-(4-fluoropyrazolo[1,5-a]pyridin-2-yl)-6,7-dihydro-1H-imidazo[4,5-c]pyridin-5(4H)-yl)(5-(1-methyl-1H-pyrazol-4-yl)-1,3,4-oxadiazol-2-yl)methanone] and Cc1cccn2nc([C@@H]3c4nc[nH]c4CCN3C(=O)c3nnc(-c4cnn(C)c4)o3)cc12 [Example 748, (S)-(5-(1-methyl-1H-pyrazol-4-yl)-1,3,4-oxadiazol-2-yl)(4-(4-methylpyrazolo[1,5-a]pyridin-2-yl)-6,7-dihydro-1H-imidazo[4,5-c]pyridin-5(4H)-yl)methanone] cannot be ordered by AC50: < 500 nM for the first, < 500 nM for the second.

First: Cn1ccc(-c2nnc(C(=O)N3CCc4[nH]cnc4[C@@H]3c3cc4c(F)cccn4n3)o2)n1 [Example 731, (R)-(4-(4-fluoropyrazolo[1,5-a]pyridin-2-yl)-6,7-dihydro-1H-imidazo[4,5-c]pyridin-5(4H)-yl)(5-(1-methyl-1H-pyrazol-3-yl)-1,3,4-oxadiazol-2-yl)methanone]
Second: Cc1cccn2nc([C@@H]3c4nc[nH]c4CCN3C(=O)c3nnc(-c4ccn(C)n4)o3)cc12 [Example 743, (S)-(5-(1-methyl-1H-pyrazol-3-yl)-1,3,4-oxadiazol-2-yl)(4-(4-methylpyrazolo[1,5-a]pyridin-2-yl)-6,7-dihydro-1H-imidazo[4,5-c]pyridin-5(4H)-yl)methanone]
The AC50 of the first is higher: > 5000 nM for the first, < 500 nM for the second.

Going from O=C(c1nnc(-c2ccccn2)o1)N1CCc2[nH]cnc2[C@H]1c1cc2c(F)cccn2n1 [Example 733, (S)-(4-(4-fluoropyrazolo[1,5-a]pyridin-2-yl)-6,7-dihydro-1H-imidazo[4,5-c]pyridin-5(4H)-yl)(5-(pyridin-2-yl)-1,3,4-oxadiazol-2-yl)methanone] to O=C(c1nnc(-c2ccccn2)o1)N1CCc2[nH]cnc2[C@@H]1c1cc2c(Cl)cccn2n1 [Example 734, (R)-(4-(4-chloropyrazolo[1,5-a]pyridin-2-yl)-6,7-dihydro-1H-imidazo[4,5-c]pyridin-5(4H)-yl)(5-(pyridin-2-yl)-1,3,4-oxadiazol-2-yl)methanone], the AC50 rises from < 500 nM to > 5000 nM.

Going from O=C(c1nnc(-c2ccccn2)o1)N1CCc2[nH]cnc2[C@H]1c1cc2c(Cl)cccn2n1 [Example 735, (S)-(4-(4-chloropyrazolo[1,5-a]pyridin-2-yl)-6,7-dihydro-1H-imidazo[4,5-c]pyridin-5(4H)-yl)(5-(pyridin-2-yl)-1,3,4-oxadiazol-2-yl)methanone] to Cc1cccn2nc([C@H]3c4nc[nH]c4CCN3C(=O)c3nnc(-c4ccccn4)o3)cc12 [Example 740, (R)-(4-(4-methylpyrazolo[1,5-a]pyridin-2-yl)-6,7-dihydro-1H-imidazo[4,5-c]pyridin-5(4H)-yl)(5-(pyridin-2-yl)-1,3,4-oxadiazol-2-yl)methanone], the AC50 rises from < 500 nM to > 5000 nM.

First: Cc1cccn2nc([C@@H]3c4nc[nH]c4CCN3C(=O)c3oc(C(C)(C)O)nc3C(F)F)cc12 [Example 736, (S)-(4-(difluoromethyl)-2-(2-hydroxypropan-2-yl)oxazol-5-yl)(4-(4-methylpyrazolo[1,5-a]pyridin-2-yl)-6,7-dihydro-1H-imidazo[4,5-c]pyridin-5(4H)-yl)methanone]
Second: Cc1cccn2nc([C@H]3c4nc[nH]c4CCN3C(=O)c3oc(C(C)(C)O)nc3C(F)F)cc12 [Example 737, (R)-(4-(difluoromethyl)-2-(2-hydroxypropan-2-yl)oxazol-5-yl)(4-(4-methylpyrazolo[1,5-a]pyridin-2-yl)-6,7-dihydro-1H-imidazo[4,5-c]pyridin-5(4H)-yl)methanone]
The AC50 of the first is lower: < 500 nM for the first, 1000 to 5000 nM for the second.

Compared with Cc1cccn2nc([C@@H]3c4nc[nH]c4CCN3C(=O)c3oc([C@@H](C)O)nc3C(F)F)cc12 [Example 738, (4-(difluoromethyl)-2-((R)-1-hydroxyethyl)oxazol-5-yl)((S)-4-(4-methylpyrazolo[1,5-a]pyridin-2-yl)-6,7-dihydro-1H-imidazo[4,5-c]pyridin-5(4H)-yl)methanone], Cc1cccn2nc([C@H]3c4nc[nH]c4CCN3C(=O)c3oc([C@@H](C)O)nc3C(F)F)cc12 [Example 739, (4-(difluoromethyl)-2-((R)-1-hydroxyethyl)oxazol-5-yl)((R)-4-(4-methylpyrazolo[1,5-a]pyridin-2-yl)-6,7-dihydro-1H-imidazo[4,5-c]pyridin-5(4H)-yl)methanone] is higher in AC50: < 500 nM for the first, 1000 to 5000 nM for the second.

Going from Cc1cccn2nc([C@@H]3c4nc[nH]c4CCN3C(=O)c3nnc(-c4ccccn4)o3)cc12 [Example 741, (S)-(4-(4-methylpyrazolo[1,5-a]pyridin-2-yl)-6,7-dihydro-1H-imidazo[4,5-c]pyridin-5(4H)-yl)(5-(pyridin-2-yl)-1,3,4-oxadiazol-2-yl)methanone] to Cc1cccn2nc([C@H]3c4nc[nH]c4CCN3C(=O)c3nnc(-c4cnn(C)c4)o3)cc12 [Example 749, (R)-(5-(1-methyl-1H-pyrazol-4-yl)-1,3,4-oxadiazol-2-yl)(4-(4-methylpyrazolo[1,5-a]pyridin-2-yl)-6,7-dihydro-1H-imidazo[4,5-c]pyridin-5(4H)-yl)methanone], the AC50 rises from < 500 nM to > 5000 nM.

First: CC(C)(O)c1nc(C(F)(F)F)c(C(=O)N2CCc3[nH]cnc3[C@@H]2c2cc3c(F)cccn3n2)o1 [Example 745, (R)-(4-(4-fluoropyrazolo[1,5-a]pyridin-2-yl)-6,7-dihydro-1H-imidazo[4,5-c]pyridin-5(4H)-yl)(2-(2-hydroxypropan-2-yl)-4-(trifluoromethyl)oxazol-5-yl)methanone]
Second: CC(C)(O)c1nc(Br)c(C(=O)N2CCc3[nH]cnc3[C@H]2c2cc3c(F)cccn3n2)o1 [Example 746, (S)-(4-bromo-2-(2-hydroxypropan-2-yl)oxazol-5-yl)(4-(4-fluoropyrazolo[1,5-a]pyridin-2-yl)-6,7-dihydro-1H-imidazo[4,5-c]pyridin-5(4H)-yl)methanone]
The AC50 of the first is higher: 1000 to 5000 nM for the first, < 500 nM for the second.

First: CC(C)(O)c1nc(Br)c(C(=O)N2CCc3[nH]cnc3[C@@H]2c2cc3c(F)cccn3n2)o1 [Example 747, (R)-(4-bromo-2-(2-hydroxypropan-2-yl)oxazol-5-yl)(4-(4-fluoropyrazolo[1,5-a]pyridin-2-yl)-6,7-dihydro-1H-imidazo[4,5-c]pyridin-5(4H)-yl)methanone]
Second: Cc1nc([C@H](C)O)oc1C(=O)N1CCc2[nH]cnc2[C@H]1c1cc2c(C)cccn2n1 [Example 750, (2-((S)-1-hydroxyethyl)-4-methyloxazol-5-yl)((S)-4-(4-methylpyrazolo[1,5-a]pyridin-2-yl)-6,7-dihydro-1H-imidazo[4,5-c]pyridin-5(4H)-yl)methanone]
The AC50 of the first is higher: > 5000 nM for the first, < 500 nM for the second.

First: Cc1nc([C@@H](C)O)oc1C(=O)N1CCc2[nH]cnc2[C@H]1c1cc2c(C)cccn2n1 [Example 752, (2-((R)-1-hydroxyethyl)-4-methyloxazol-5-yl)((S)-4-(4-methylpyrazolo[1,5-a]pyridin-2-yl)-6,7-dihydro-1H-imidazo[4,5-c]pyridin-5(4H)-yl)methanone]
Second: Cc1nc([C@@H](C)O)oc1C(=O)N1CCc2[nH]cnc2[C@@H]1c1cc2c(C)cccn2n1 [Example 753, (2-((R)-1-hydroxyethyl)-4-methyloxazol-5-yl)((R)-4-(4-methylpyrazolo[1,5-a]pyridin-2-yl)-6,7-dihydro-1H-imidazo[4,5-c]pyridin-5(4H)-yl)methanone]
The AC50 of the first is lower: < 500 nM for the first, 1000 to 5000 nM for the second.
